Test results: ChEMBL document CHEMBL3217547, “3-Substituted coumarins as dual inhibitors of AChE and MAO for the treatment of Alzheimer's disease” (Medchemcomm, 2012)
The source made the active and inactive calls. The rule behind the calls is not given here.

Experiments:
[1] = target: T1, Amine oxidase [flavin-containing] A (Homo sapiens, UniProt P21397); experiment: Inhibition of recombinant human MAO-A assessed as production of hydrogen peroxide from p-tyramine up to 100 uM after 15 mins by Amplex Red assay; settings: 0.25 h
T1 sequence (P21397 whole entry): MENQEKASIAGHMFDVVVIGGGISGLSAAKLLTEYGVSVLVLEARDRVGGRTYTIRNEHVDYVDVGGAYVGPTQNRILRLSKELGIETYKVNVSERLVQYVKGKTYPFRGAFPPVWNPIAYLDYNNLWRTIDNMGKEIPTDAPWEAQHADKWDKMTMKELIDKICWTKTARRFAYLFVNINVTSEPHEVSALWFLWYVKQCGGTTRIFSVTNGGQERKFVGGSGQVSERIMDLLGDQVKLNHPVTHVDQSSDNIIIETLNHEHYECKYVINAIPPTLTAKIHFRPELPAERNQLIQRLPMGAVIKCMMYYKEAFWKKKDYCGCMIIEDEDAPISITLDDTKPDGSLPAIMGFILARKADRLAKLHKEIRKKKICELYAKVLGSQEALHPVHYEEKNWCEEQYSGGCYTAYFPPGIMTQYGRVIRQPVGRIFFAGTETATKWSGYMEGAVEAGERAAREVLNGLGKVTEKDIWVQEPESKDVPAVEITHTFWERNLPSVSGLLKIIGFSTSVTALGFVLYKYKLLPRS

[2] = target: T2, Amine oxidase [flavin-containing] B (Homo sapiens, UniProt P27338)
T2 sequence (P27338 whole entry): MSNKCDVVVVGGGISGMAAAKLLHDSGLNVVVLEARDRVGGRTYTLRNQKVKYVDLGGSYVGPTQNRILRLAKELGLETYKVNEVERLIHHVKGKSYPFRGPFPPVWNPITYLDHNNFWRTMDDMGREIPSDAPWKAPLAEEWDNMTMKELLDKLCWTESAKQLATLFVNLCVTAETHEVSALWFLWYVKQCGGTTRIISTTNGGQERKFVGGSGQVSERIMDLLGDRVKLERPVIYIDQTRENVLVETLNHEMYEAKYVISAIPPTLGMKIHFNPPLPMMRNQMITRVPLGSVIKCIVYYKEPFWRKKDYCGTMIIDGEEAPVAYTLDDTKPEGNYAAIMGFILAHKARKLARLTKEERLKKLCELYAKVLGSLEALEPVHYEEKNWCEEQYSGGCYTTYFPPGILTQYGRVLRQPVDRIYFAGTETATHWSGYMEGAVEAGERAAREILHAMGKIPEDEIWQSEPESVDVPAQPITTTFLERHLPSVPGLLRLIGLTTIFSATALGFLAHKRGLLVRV
Description: Inhibition of recombinant human MAO-B assessed as production of hydrogen peroxide from p-tyramine after 15 mins by Amplex Red assay

Acetylcholinesterase [3] = target: T3, Acetylcholinesterase (Homo sapiens, UniProt P22303); experiment: Inhibition of recombinant human AChE expressed in HEK293 cells using acetylthiocholine iodide as substrate preincubated for 5 mins before substrate addition measured after 10 mins by Ellman's method
[4] = target: T2, Amine oxidase [flavin-containing] B; experiment: Inhibition of recombinant human MAO-B assessed as production of hydrogen peroxide from p-tyramine up to 100 uM after 15 mins by Amplex Red assay; settings: 0.25 h
Acetylcholinesterase [5] = target: T3, Acetylcholinesterase; experiment: Inhibition of recombinant human AChE expressed in HEK293 cells using acetylthiocholine iodide as substrate at 100 uM preincubated for 5 mins before substrate addition measured after 10 mins by Ellman's method
[6] = target: T1, Amine oxidase [flavin-containing] A; experiment: Inhibition of recombinant human MAO-A assessed as production of hydrogen peroxide from p-tyramine after 15 mins by Amplex Red assay
[7] = target: T2, Amine oxidase [flavin-containing] B; experiment: Inhibition of recombinant human MAO-B assessed as production of hydrogen peroxide from p-tyramine at 100 uM after 15 mins by Amplex Red assay; settings: 0.25 h

T3 sequence (P22303 whole entry): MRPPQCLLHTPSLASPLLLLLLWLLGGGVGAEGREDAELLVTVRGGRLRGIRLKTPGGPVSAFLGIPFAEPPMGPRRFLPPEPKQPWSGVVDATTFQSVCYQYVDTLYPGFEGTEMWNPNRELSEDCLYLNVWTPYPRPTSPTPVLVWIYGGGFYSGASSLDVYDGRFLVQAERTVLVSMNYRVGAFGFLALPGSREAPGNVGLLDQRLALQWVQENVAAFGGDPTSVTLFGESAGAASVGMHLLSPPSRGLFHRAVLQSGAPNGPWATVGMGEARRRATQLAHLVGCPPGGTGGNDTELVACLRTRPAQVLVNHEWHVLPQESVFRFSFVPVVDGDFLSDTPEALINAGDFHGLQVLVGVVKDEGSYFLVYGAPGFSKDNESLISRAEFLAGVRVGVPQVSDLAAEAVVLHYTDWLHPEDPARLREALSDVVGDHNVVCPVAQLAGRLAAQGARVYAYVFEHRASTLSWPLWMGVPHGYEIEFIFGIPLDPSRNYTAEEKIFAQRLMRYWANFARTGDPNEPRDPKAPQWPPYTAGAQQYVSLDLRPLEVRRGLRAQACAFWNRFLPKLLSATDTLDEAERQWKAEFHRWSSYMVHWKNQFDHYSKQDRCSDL

SMILES	inhibition (INH) [1]	IC50 [2] [µM]	IC50 (Acetylcholinesterase [3]) [µM]	inhibition (INH) [4]	inhibition (Acetylcholinesterase [5])	IC50 [6] [µM]	inhibition at 100 µM [7] [%]
COc1ccc(C(=O)Nc2cc3ccccc3oc2=O)cc1	Not Active	30.5	69.5				
O=C(CCl)Nc1cc2ccccc2oc1=O	Not Active			Not Active	inactive		
CC(=O)Nc1cc2ccccc2oc1=O					inactive	38.9	40
COc1cc(C(=O)Nc2cc3ccccc3oc2=O)cc(OC)c1OC	Not Active	72.6			inactive		
O=C(Nc1cc2ccccc2oc1=O)C1CCCCC1	Not Active	50			inactive		
O=c1oc2ccccc2cc1-c1ccccc1	Not Active				inactive		
O=C(Nc1cc2ccccc2oc1=O)c1ccc(Cl)cc1	Not Active	1.95	18.7				
O=C(Nc1cc2ccccc2oc1=O)c1ccccc1	Not Active	0.76			inactive		
O=C(Nc1cc2ccccc2oc1=O)c1ccc(Cl)c(Cl)c1	Not Active	5.95	15				
Cc1ccc(C(=O)Nc2cc3cc(C)ccc3oc2=O)cc1		0.17	41.4			46	
Cc1ccc2oc(=O)c(-c3ccccc3)cc2c1	Not Active				inactive		
COc1ccc(C(=O)Nc2cc3ccccc3oc2=O)cc1OC	Not Active	58.4			inactive		
O=C(Nc1cc2ccccc2oc1=O)c1ccc([N+](=O)[O-])cc1	Not Active		12.9	Not Active			
O=C(CBr)Nc1cc2ccccc2oc1=O	Not Active			Not Active	inactive		
Cc1ccc(-c2cc3cc(C)ccc3oc2=O)cc1	Not Active				inactive		
Cc1ccc(C(=O)Nc2cc3ccccc3oc2=O)cc1	Not Active	7.96	18.4				
